Results from article PMC9127750, “Structure-based design of CDC42 effector interaction inhibitors for the treatment of cancer” (Cell reports, 2022).
Values joined by “and” are separate entries in the source; they are usually repeats but may differ in a detail not shown here. Identical values can stand only once.

Test system: WM3248 melanoma cells, 486 antibodies
Experiment: Reverse phase protein arrays (RPPA)
Type: cell-based, Human
Text: Pellets were snap frozen in liquid nitrogen and shipped to MD Anderson Cancer Center core RPPA facility for RPPA analysis (Table S5). Three biological replicates for each sample were generated.
Nomenclatures on the RPPA heatmaps: name_of_antibody.species_of_antibody.status_of_antibody. V - antibody validated; C - validation of antibody in progress; Q - antibody nonspecific; E – under evaluation; antibodies raised in M - mouse, G - goat, R - rabbit, or T - rat.

## CN(C)c1cccc(Nc2cc(-c3ccccc3)nc(C3CCNCC3)n2)c1 [ARN22089, N1,N1-dimethyl-N3-(6-phenyl-2-(piperidin-4-yl)pyrimidin-4-yl)benzene-1,3-diamine]
Level 20 vs 0
  Merlin.R.C Norm_20 Average: 1.326
  Midkine.R.V Norm_20 Average: 0.903
  Mitofusin.1.R.V Norm_20 Average: 0.924
  Mitofusin.2.R.V Norm_20 Average: 0.929
  Mnk1.R.V Norm_20 Average: 0.909
  mTOR.R.V Norm_20 Average: 0.966
  mTOR_pS2448.R.C Norm_20 Average: 0.981
Level 20 vs 0, replicates
  HLA.DQA1.R.V Norm_20: 0.920
  HLA.DR.DP.DQ.DX.R.C Norm_20: 1.294 and 1.162
  HMHA1.R.V Norm_20: 0.981 and 0.880 and 1.188
  HNRNPK.R.V Norm_20: 0.984 and 1.119 and 0.871
  HSP27.M.C Norm_20: 0.670 and 0.856 and 0.906
  HSP27_pS82.R.V Norm_20: 0.842 and 0.885 and 1.155
  HSP60.R.V Norm_20: 1.130 and 0.832 and 1.026
  HSP70.R.C Norm_20: 1.062 and 1.459
  Hexokinase.I.R.C Norm_20: 1.110 and 1.189 and 1.305
  Hexokinase.II.R.V Norm_20: 1.291 and 0.878 and 1.104
  Hif.1αR.C Norm_20: 1.195 and 0.879 and 1.078
  Histone.H3.R.V Norm_20: 1.827 and 15.369 and 0.615
  Histone.H3_pS10.R.V Norm_20: 1.077 and 5.500 and 0.823
  IDO.R.C Norm_20: 0.970 and 0.836
  IGF1R_pY1135_Y1136.R.V Norm_20: 1.013 and 0.925
  IGFBP2.R.V Norm_20: 1.100 and 0.958 and 1.153
  IGFBP3.M.V Norm_20: 0.795 and 0.982
  IGFRb.R.C Norm_20: 1.223 and 1.234
  IL.6.R.C Norm_20: 0.955 (2×) and 1.003
  IMP3.R.C Norm_20: 0.919 and 1.030 and 0.952
  INPP4b.R.C Norm_20: 0.903 and 0.986
  IR.b.R.C Norm_20: 1.018 and 0.967 and 1.220
  IRF.1.R.V Norm_20: 0.991 and 0.831 and 1.052
  IRF.3.R.V Norm_20: 0.860 and 0.878 and 0.910
  IRS1.R.V Norm_20: 1.064 and 1.027 and 1.060
  IRS2.R.C Norm_20: 1.529 and 1.065
  JAB1.M.C Norm_20: 0.904 and 0.945 and 1.061
  JNK2.R.V Norm_20: 0.750 and 1.506
  JNK_pT183_Y185.R.C Norm_20: 1.059 and 0.941 and 1.008
  Jagged1.R.V Norm_20: 1.035 and 0.964 and 1.085
  Jak2.R.V Norm_20: 1.132 and 0.972 and 1.009
  KAP1.R.V Norm_20: 1.259 and 0.970 and 1.549
  KEAP1.R.V Norm_20: 1.169 and 0.932 and 0.897
  LAD1.R.V Norm_20: 0.881 and 0.761 and 1.249
  LC3A.B.R.C Norm_20: 1.429 and 1.134 and 1.161
  LCN2.R.V Norm_20: 2.531 and 1.008 and 1.326
  LDHA.R.C Norm_20: 0.857 and 1.499 and 2.319
  LRP6_pS1490.R.V Norm_20: 1.001
  Lasu1.R.V Norm_20: 1.199 and 1.294
  Lck.R.V Norm_20: 1.370 and 1.163 and 1.379
  Lyn.R.V Norm_20: 0.892 and 1.140 and 1.052
  MACC1.R.V Norm_20: 0.920 and 0.933
  MAPK_pT202_Y204.R.C Norm_20: 0.833 and 0.402 and 0.466
  MCT4.R.V Norm_20: 1.030 and 0.799 and 1.149
  MDM2_pS166.R.V Norm_20: 1.426 and 1.478 and 1.290
  MEK1.R.V Norm_20: 1.117 and 2.580
  MEK1_pS217_S221.R.V Norm_20: 0.743 and 0.841 and 1.347
  MEK2.R.V Norm_20: 0.956 and 1.186
  MERIT40.R.C Norm_20: 0.841 and 0.749 and 1.150
  MERIT40_pS29.R.V Norm_20: 0.968 and 0.879 and 1.231
  METTL3.R.V Norm_20: 1.164 and 1.324 and 1.250
  MIF.R.C Norm_20: 0.869 and 0.900 and 0.906
  MIG6.R.V Norm_20: 0.893 and 0.926 and 0.901
  MITF.R.V Norm_20: 1.001 and 1.191 and 1.081
  MLH1.M.V Norm_20: 0.708 and 0.840 and 1.119
  MLKL.R.V Norm_20: 0.758 and 0.733
  MMP2.R.V Norm_20: 0.895 and 0.974 and 0.934
  MMP14.R.V Norm_20: 1.924 and 1.667 and 1.374
  MR1.M.C Norm_20: 0.871 and 1.118 and 0.973
  MRAP.R.C Norm_20: 1.035 and 1.214 and 1.082
  MSH2.R.C Norm_20: 0.839 and 0.919 and 1.059
  MSH6.R.C Norm_20: 1.343 and 1.387 and 1.258
  MSI2.R.C Norm_20: 1.362 and 1.019
  MTCO1.M.V Norm_20: 1.305 and 0.956 and 1.145
  MTSS1.M.C Norm_20: 0.841 and 1.006 and 0.964
  Mcl.1.R.V Norm_20: 0.748 and 0.609 and 0.905
  MelanA.R.C Norm_20: 1.030 and 0.993 and 1.051
  Melanoma.gp100.R.C Norm_20: 1.080 and 0.890
  Merlin.R.C Norm_20: 1.344 and 1.329 and 1.306
  Midkine.R.V Norm_20: 0.858 and 0.901
  Mitofusin.1.R.V Norm_20: 0.931 and 0.783 and 1.058
  Mitofusin.2.R.V Norm_20: 0.808 and 0.772 and 1.206
  Mnk1.R.V Norm_20: 0.936 and 0.820 and 0.972
  mTOR.R.V Norm_20: 0.878 and 0.940 and 1.079
  mTOR_pS2448.R.C Norm_20: 0.856 and 0.896 and 1.190
